Measurements taken from patent US4604236A, “Calcitonin analogs” (priority 1985, dated 1986).

Experiments:
[1] = tested on: serum calcium concentration; assay: Biological assay of calcitonin analogs in vivo: reduction of serum calcium concentration versus salmon calcitonin standard, 2×2 parallel line assay; set-up: species or system Rats; conditions: standard used in the assay, independently determined
Method: The biological potency of des-13-serine-salmon calcitonin was determined by comparing the reduction of serum calcium concentration which followed administration by graded doses of des-Ser^13 -SCT and synthetic salmon calcitonin standard. Rats were divided into four groups of seven animals, and each group was assigned at random to a dose of standard or test solution. Low and high doses were chosen from the linear portion of the dose-response curve. For the salmon calcitonin standard, the values were 0.7 and 2.1 ng. peptide/100 g. body weight (BW). This dose approximates 3 and 9 MU/100 g. BW. Peptides were given by subcutaneous injection (0.2 ml/100 g. BW) and blood was withdrawn 1 hour later for serum calcium determination. Sera are processed and analyzed within two hours of collection. […]. Results were analyzed by a 2×2 parallel line assay [Gaddum, J. H., J. Pharm. Pharmacol., 6, 345 (1953)]. The standard salmon calcitonin used was independently determined to contain greater than 4,000 IU/mg. des-Ser^13 -SCT assayed at 4650 IU/mg.

[2] = literature values; cited from earlier work

Row | Compound | potency content of the standard salmon calcitonin [1] | hypocalcemic potency [2]
1 | CC(C)C[C@H](NC(=O)[C@H](CCCCN)NC(=O)CNC(=O)[C@H](CC(C)C)NC(=O)[C@@H](NC(=O)[C@@H]1CSSC[C@H](N)C(=O)N[C@@H](CO)C(=O)N[C@@H](CC(N)=O)C(=O)N[C@@H](CC(C)C)C(=O)N[C@@H](CO)C(=O)N[C@@H]([C@@H](C)O)C(=O)N1)C(C)C)C(=O)N[C@@H](CO)C(=O)N[C@@H](CCC(N)=O)C(=O)N[C@@H](CCC(=O)O)C(=O)N[C@@H](CC(C)C)C(=O)N[C@@H](Cc1c[nH]cn1)C(=O)N[C@@H](CCCCN)C(=O)N[C@@H](CC(C)C)C(=O)N[C@@H](CCC(N)=O)C(=O)N[C@H](C(=O)N[C@@H](Cc1ccc(O)cc1)C(=O)N1CCC[C@H]1C(=O)N[C@@H](CCCNC(=N)N)C(=O)N[C@H](C(=O)N[C@@H](CC(N)=O)C(=O)N[C@H](C(=O)NCC(=O)N[C@@H](CO)C(=O)NCC(=O)N[C@H](C(=O)N1CCC[C@H]1C(N)=O)[C@@H](C)O)[C@@H](C)O)[C@@H](C)O)[C@@H](C)O [standard salmon calcitonin, salmon calcitonin] | greater than 4,000 IU/mg | –
2 | (1,7-α-L-aminosuberic acid)eel calcitonin | – | about 3400 IU/mg.
3 | eel calcitonin [synthetic eel calcitonin] | – | around 4300 IU/mg.
